{"source": "patent US12410171B2", "about": "“Tropomyosin receptor kinase (TRK) degradation compounds and methods of use” (Cullgen (Shanghai), Inc., priority 2020, dated 2025)", "data": [{"test_system": "KM12 cells", "assay": "KM12 cell viability (CellTiter-Glo)", "type": "cell-based", "conditions": "Homo sapiens, 72 h; KM12 cell viability, 11-point 3-fold serial dilution, 3 days, CellTiter-Glo; read-out: IC50", "description": "KM12 or H358 cells were treated with 1000 nM CPD-053 following an 8-point 3-fold serial dilution for 3 days.\nKM12 cells seeded in 96-well plates were treated with heterobifunctional compounds following a 11-point 3-fold serial dilution for 3 days.\nKM12, H358, HEL, SU-DHL-1 and other cells were cultured at 37° C. with 5% CO2 in RPMI 1640 Medium supplemented with 10% fetal bovine serum. Cells were authenticated using the short tandem repeat (STR) assays. Mycoplasma test results were negative. Stable cell lines were established by lentivirus transduction, selected and maintained in medium containing 1 μg/mL puromycin (Beyotime Biotechnology).\nCells were seeded at a density of 5000 cells per well in 96-well assay plates and treated with test compounds following a 12-point 2-fold serial dilution or a 8-point 3-fold dilution, or 11-point 3-fold serial dilution. Three days later, cell viability was determined using the CellTiter-Glo assay kit (Promega) according to the manufacturer's instructions. The dose-response curves were determined and IC50 values were calculated using the GraphPad Prism software following a nonlinear regression (least squares fit) method.", "units": {"IC50": "nM"}, "values": [{"smiles": "Cc1ncsc1-c1ccc(CNC(=O)[C@@H]2C[C@@H](O)CN2C(=O)[C@@H](NC(=O)CCOCCC(=O)N2CCC(Nc3cccc(C(=O)Nc4cnn5ccc(N6CCC[C@@H]6c6cc(F)ccc6F)nc45)n3)CC2)C(C)(C)C)cc1", "note": "[CPD-465, N-(5-((R)-2-(2,5-difluorophenyl)pyrrolidin-1-yl)pyrazolo[1,5-a]pyrimidin-3-yl)-6-((1-(3-(3-(((S)-1-((2S,4R)-4-hydroxy-2-((4-(4-methylthiazol-5-yl)benzyl)carbamoyl)pyrrolidin-1-yl)-3,3-dimethyl-1-oxobutan-2-yl)amino)-3-oxopropoxy)propanoyl)piperidin-4-yl)amino)picolinamide]", "IC50": 2020}, {"smiles": "Cc1ncsc1-c1ccc(CNC(=O)[C@@H]2C[C@@H](O)CN2C(=O)[C@@H](NC(=O)CCOCCOCCC(=O)N2CCC(Nc3cccc(C(=O)Nc4cnn5ccc(N6CCC[C@@H]6c6cc(F)ccc6F)nc45)n3)CC2)C(C)(C)C)cc1", "note": "[CPD-466]", "IC50": 253}, {"smiles": "Cc1ncsc1-c1ccc(CNC(=O)[C@@H]2C[C@@H](O)CN2C(=O)[C@@H](NC(=O)CCOCCOCCOCCC(=O)N2CCC(Nc3cccc(C(=O)Nc4cnn5ccc(N6CCC[C@@H]6c6cc(F)ccc6F)nc45)n3)CC2)C(C)(C)C)cc1", "note": "[CPD-467, N-(5-((R)-2-(2,5-difluorophenyl)pyrrolidin-1-yl)pyrazolo[1,5-a]pyrimidin-3-yl)-6-((1-((S)-15-((2S,4R)-4-hydroxy-2-((4-(4-methylthiazol-5-yl)benzyl)carbamoyl)pyrrolidine-1-carbonyl)-16,16-dimethyl-13-oxo-4,7,10-trioxa-14-azaheptadecanoyl)piperidin-4-yl)amino)picolinamide]", "IC50": 343}, {"smiles": "Cc1ncsc1-c1ccc(CNC(=O)[C@@H]2C[C@@H](O)CN2C(=O)[C@@H](NC(=O)CCOCCOCCOCCOCCC(=O)N2CCC(Nc3cccc(C(=O)Nc4cnn5ccc(N6CCC[C@@H]6c6cc(F)ccc6F)nc45)n3)CC2)C(C)(C)C)cc1", "note": "[CPD-468, N-(5-((R)-2-(2,5-difluorophenyl)pyrrolidin-1-yl)pyrazolo[1,5-a]pyrimidin-3-yl)-6-((1-((S)-18-((2S,4R)-4-hydroxy-2-((4-(4-methylthiazol-5-yl)benzyl)carbamoyl)pyrrolidine-1-carbonyl)-19,19-dimethyl-16-oxo-4,7,10,13-tetraoxa-17-azaicosanoyl)piperidin-4-yl)amino)picolinamide]", "IC50": "> 1000"}, {"smiles": "Cc1ncsc1-c1ccc(CNC(=O)[C@@H]2C[C@@H](O)CN2C(=O)[C@@H](NC(=O)CCOCCOCCOCCOCCOCCC(=O)N2CCC(Nc3cccc(C(=O)Nc4cnn5ccc(N6CCC[C@@H]6c6cc(F)ccc6F)nc45)n3)CC2)C(C)(C)C)cc1", "note": "[CPD-469, N-(5-((R)-2-(2,5-difluorophenyl)pyrrolidin-1-yl)pyrazolo[1,5-a]pyrimidin-3-yl)-6-((1-((S)-21-((2S,4R)-4-hydroxy-2-((4-(4-methylthiazol-5-yl)benzyl)carbamoyl)pyrrolidine-1-carbonyl)-22,22-dimethyl-19-oxo-4,7,10,13,16-pentaoxa-20-azatricosanoyl)piperidin-4-yl)amino)picolinamide]", "IC50": "> 1000"}, {"smiles": "NC(=O)C1CCN(c2cc(CN3CCN(C(=O)CCOCCOCCNc4cccc5c4C(=O)N(C4CCC(=O)NC4=O)C5=O)CC3)ccc2NC(=O)c2coc(N3CCOCC3)n2)CC1", "note": "(stereo not shown) [CPD-486, N-(2-(4-carbamoylpiperidin-1-yl)-4-((4-(3-(2-(2-((2-(2,6-dioxopiperidin-3-yl)-1,3-dioxoisoindolin-4-yl)amino)ethoxy)ethoxy)propanoyl)piperazin-1-yl)methyl)phenyl)-2-morpholinooxazole-4-carboxamide]", "IC50": 230}, {"smiles": "NC(=O)C1CCN(c2cc(CN3CCN(C(=O)CCOCCOCCOCCOCCNc4cccc5c4C(=O)N(C4CCC(=O)NC4=O)C5=O)CC3)ccc2NC(=O)c2coc(N3CCOCC3)n2)CC1", "note": "(stereo not shown) [CPD-488, N-(2-(4-carbamoylpiperidin-1-yl)-4-((4-(1-((2-(2,6-dioxopiperidin-3-yl)-1,3-dioxoisoindolin-4-yl)amino)-3,6,9,12-tetraoxapentadecan-15-oyl)piperazin-1-yl)methyl)phenyl)-2-morpholinooxazole-4-carboxamide]", "IC50": 147}, {"smiles": "NC(=O)C1CCN(c2cc(CN3CCN(C(=O)CCOCCOCCOCCOCCOCCNc4cccc5c4C(=O)N(C4CCC(=O)NC4=O)C5=O)CC3)ccc2NC(=O)c2coc(N3CCOCC3)n2)CC1", "note": "(stereo not shown) [CPD-489, N-(2-(4-carbamoylpiperidin-1-yl)-4-((4-(1-((2-(2,6-dioxopiperidin-3-yl)-1,3-dioxoisoindolin-4-yl)amino)-3,6,9,12,15-pentaoxaoctadecan-18-oyl)piperazin-1-yl)methyl)phenyl)-2-morpholinooxazole-4-carboxamide]", "IC50": 141}, {"smiles": "Cc1ncsc1-c1ccc(CNC(=O)[C@@H]2C[C@@H](O)CN2C(=O)[C@@H](NC(=O)CCC(=O)N2CCN(Cc3ccc(NC(=O)c4coc(N5CCOCC5)n4)c(N4CCC(C(N)=O)CC4)c3)CC2)C(C)(C)C)cc1", "note": "[CPD-490, N-(2-(4-carbamoylpiperidin-1-yl)-4-((4-(4-(((S)-1-((2S,4R)-4-hydroxy-2-((4-(4-methylthiazol-5-yl)benzyl)carbamoyl)pyrrolidin-1-yl)-3,3-dimethyl-1-oxobutan-2-yl)amino)-4-oxobutanoyl)piperazin-1-yl)methyl)phenyl)-2-morpholinooxazole-4-carboxamide]", "IC50": 2800}, {"smiles": "Cc1ncsc1-c1ccc(CNC(=O)[C@@H]2C[C@@H](O)CN2C(=O)[C@@H](NC(=O)CCCCC(=O)N2CCN(Cc3ccc(NC(=O)c4coc(N5CCOCC5)n4)c(N4CCC(C(N)=O)CC4)c3)CC2)C(C)(C)C)cc1", "note": "[CPD-491, N-(2-(4-carbamoylpiperidin-1-yl)-4-((4-(6-(((S)-1-((2S,4R)-4-hydroxy-2-((4-(4-methylthiazol-5-yl)benzyl)carbamoyl)pyrrolidin-1-yl)-3,3-dimethyl-1-oxobutan-2-yl)amino)-6-oxohexanoyl)piperazin-1-yl)methyl)phenyl)-2-morpholinooxazole-4-carboxamide]", "IC50": 3700}, {"smiles": "Cc1ncsc1-c1ccc(CNC(=O)[C@@H]2C[C@@H](O)CN2C(=O)[C@@H](NC(=O)CCCCCCC(=O)N2CCN(Cc3ccc(NC(=O)c4coc(N5CCOCC5)n4)c(N4CCC(C(N)=O)CC4)c3)CC2)C(C)(C)C)cc1", "note": "[CPD-492, N-(2-(4-carbamoylpiperidin-1-yl)-4-((4-(8-(((S)-1-((2S,4R)-4-hydroxy-2-((4-(4-methylthiazol-5-yl)benzyl)carbamoyl)pyrrolidin-1-yl)-3,3-dimethyl-1-oxobutan-2-yl)amino)-8-oxooctanoyl)piperazin-1-yl)methyl)phenyl)-2-morpholinooxazole-4-carboxamide]", "IC50": 178}, {"smiles": "Cc1ncsc1-c1ccc(CNC(=O)[C@@H]2C[C@@H](O)CN2C(=O)[C@@H](NC(=O)CCOCCC(=O)N2CCN(Cc3ccc(NC(=O)c4coc(N5CCOCC5)n4)c(N4CCC(C(N)=O)CC4)c3)CC2)C(C)(C)C)cc1", "note": "[CPD-494]", "IC50": "> 10000"}, {"smiles": "Cc1ncsc1-c1ccc(CNC(=O)[C@@H]2C[C@@H](O)CN2C(=O)[C@@H](NC(=O)CCOCCOCCC(=O)N2CCN(Cc3ccc(NC(=O)c4coc(N5CCOCC5)n4)c(N4CCC(C(N)=O)CC4)c3)CC2)C(C)(C)C)cc1", "note": "[CPD-495]", "IC50": "> 10000"}]}]}
